We go through 2 compounds from patent US11987540B2, “Crystalline solids of 3-palmitoyl-amido-1,2-propanediol and 3-palmitoyl-amido-2-hydroxy-1-dimethoxytriphenylmethylether-propane and methods of making and using the same” (Geron Corporation, priority 2019, dated 2024).

One data set has as its system telomerase. As to conditions: cited from earlier work.
Data set [1] has as its system template region of the RNA component of telomerase. The note with it: cited from earlier work.
The subject of the next data set is myelofibrosis. The note with it: cited from earlier work.
The test system of data set [2] is cancer cell lines and human tumors. As to conditions: multitude of different cancer cell lines and human tumors; cited from earlier work.
The nature of data set [3]: Solubility (dissolution) of the new crystalline polymorph used as substrate. The class given is physicochemical. As to conditions: polymorph from THF, 2-methyl-THF or DCM with triethylamine, heat/cool crystallization. On the procedure: Crystalline solids were identified as a new polymorph of 3-palmitoyl-amido-1,2-propanediol using THF, 2-methyl-THF or DCM with triethylamine during a heat/cool induced crystallization. The heat/cool crystallization included solubilizing 3-palmitoyl-amido-1,2-propanediol in a solution of THF, and heating and maintaining the composition at 50° C. overnight. For 2-methyl-THF or DCM, the solution with palmitoyl-amido-1,2-propanediol was heated to 60° C. overnight to produce a solution. After cooling the samples back to 30° C., crystalline solids formed as slurries in the solutions of THF, 2-methyl-THF and DCM.

The nature of data set [4]: Screening of the solubility in various solvents and solvent mixtures. The class given is physicochemical. Here is the method: A screening of the solubility of 3-palmitoyl-amido-1,2-propanediol was conducted with various solvents and solvent mixtures. Tetrahydrofuran (THF), 2-methyl-THF, dichloromethane (DCM), N-methyl-2-pyrrolidone (NMP), dimethylacetamide (DMAc), toluene, 2-methylbutan-2-ol (tAmOH), isopropylacetate (iPrOAc), dimethylsulfoxide (DMSO) and dimethylformamide (DMF) were identified as solvents for use in the studies. The effect of triethylamine on the solubility was also evaluated.

As for Imetelstat, the telomerase activity result with telomerase is “inhibits telomerase activity”. Also, the binding affinity entry in data set [1] is recorded as “high affinity”. Further, the bone marrow fibrosis result in the data set with myelofibrosis (patients with myelofibrosis in complete remission) was “reversal of bone marrow fibrosis”. Moreover, the clinical remission entry with myelofibrosis (patients with myelofibrosis) was “complete clinical remissions in certain patients”. Moreover, the cell proliferation result in data set [2] is “effective against cell proliferation”.

Turning to `CCCCCCCCCCCCCCCC(=O)NCC(O)CO` (stereo not shown) [3-palmitoyl-amido-1,2-propanediol], the “solubility of the polymorph” value in data set [3] is “faster solubility”. The “effect of triethylamine on the solubility” value in data set [4] (in the screened solvents (THF, 2-methyl-THF, DCM, NMP, DMAc, toluene, tAmOH, iPrOAc, DMSO, DMF)) is recorded as “small effect”. Moreover, the solubility result in data set [4] (solvent dimethylacetamide (DMAc)), in data set [4] (solvent dimethylformamide (DMF)) and in data set [4] (solvent dimethylsulfoxide (DMSO)) was “moderate solubility” throughout.
